Measured values published in patent publication US20230310540A1, “PEPTIDE COMPOSITIONS AND METHODS OF USE THEREOF” (priority 2020, published 2023).
In brackets after ≈: the same amount, converted by molar mass. Square brackets hold non-standard residues; d marks the D form. Peptide text beside a SMILES is read from it. d(hArg) = N=C(N)NCCCC[C@@H](N)C(=O)O

Tests used:
Type in all cases: cell-based
human RBCs = assay: Hemolysis of human RBCs
Experimental: (§1) Peptide variants of D-CONGA (SEQ ID NO: 1) were tested for activity against E. coli, K. pneumoniae, and S. aureus. Minimum Inhibitory Concentrations (MIC) were measured in 96-well plates by broth dilution. Peptides were serially diluted in buffer or in buffer containing 1×10^9 human RBC/ml. Following 1 hr. incubation, bacteria in growth media were added and the plates were incubated overnight at 37° C. Sterilized, wells were identified to determine MIC. Hemolysis was measured by incubating 1×10^8 human RBCs with serially diluted peptide for 30 minutes followed by centrifugation of the cells and measurements of the released hemoglobin in the supernatant by absorbance at 410 nm. The value for 100% hemolysis was established by treatment with the detergent Triton-X100. Toxicity was measured by incubating serially diluted peptide with WI38 human fibroblast cells in the presence of SYTOX Green, a DNA binding dye that reports on cell death by membrane permeabilization. The peptide concentration that gives 50% cytotoxicity by relative SYTOX Green fluorescence, is denoted EC50.
Peptide was serially diluted in PBS starting at a concentration of 100 μM. The final volume of peptide in each well was 50 μL. To each well, 50 μL of RBCs in PBS at 2×10^8 cells/mL was added. As a positive lysis control, 1% triton was used. The mixtures were incubated at 37° C. for 1 hour, after which they were centrifuged at 1000 g for 5 minutes. After centrifugation, 10 μL of supernatant was transferred to 90 μL of DI H2O in a fresh 96-well plate. The absorbance of released hemoglobin at 410 nm was recorded and the fractional hemolysis was calculated based on the 100% and 0% lysis controls.
(§2) MIC values were reported in μM peptide against gram-negative E. coli (EC), P. aeruginosa (PA), and gram-positive S. aureus (SA). The two columns under each organism are for assays performed in the absence (−) and presence (+) of 1×10^9 human RBC/ml. “>30” means that sterilization was not observed at 30 μM, the highest concentration tested. The column marked “hemolysis” is the fractional hemolysis of 1×10^8 human RBC/ml at 100 μM peptide determined from measurements of serially diluted peptide, starting from 100 μM. The column marked “EC 50” contains the concentration of peptide that kills 50% of WI-38 human fibroblast cells assayed by entry of SYTOX™ Green DNA binding dye.

E. coli = details: for MIC in Broth Dilution, E. coli, RBC −: absence of RBC; for MIC in Broth Dilution, E. coli, RBC − / MIC in Broth Dilution, E. coli, RBC +: Table 3; for MIC, E. coli, No RBC / MIC, E. coli, 10^9 cells/ml RBC: Table 2; for MIC in Broth Dilution, E. coli, RBC +: presence of 1×10^9 human RBC/ml; for MIC, E. coli, 10^9 cells/ml RBC: with 10^9 human RBC/ml
Experimental: as §1
(§3) Antimicrobial peptides and conventional antibiotics were prepared at 5-times the final concentration needed in 0.025% acetic acid. The antibiotics were serially diluted by a factor of 2:3 horizontally across 96-well plates from Corning, 25 μL per well. One column was reserved for controls. For the assays performed in the presence of RBC, type O+ human RBCs at 0 or 2.5×10^9 cells/mL were added in 50 μL aliquots to all wells. Following a 30-minute incubation, 50 μL of TSB, inoculated with 5×10^5 CFU/mL, was added to all wells, and plates were incubated overnight at 37° C. Following overnight incubation at 37° C., the OD600 was measured (values of less than 0.1 were considered sterilized). To assess bacterial growth in the assays with RBC, the OD600 was measured after a second day inoculation with 10 μL of solution from the original plate added to 100 μL of sterile TSB followed by overnight incubation.
as §2

S. aureus = details: for MIC in Broth Dilution, S. Aureus, RBC −: absence of RBC; for MIC in Broth Dilution, S. Aureus, RBC − / MIC in Broth Dilution, S. Aureus, RBC +: Table 3; for MIC, S. aureus, No RBC / MIC, S. aureus, 10^9 cells/ml RBC: Table 2; for MIC in Broth Dilution, S. Aureus, RBC +: presence of 1×10^9 human RBC/ml; for MIC, S. aureus, 10^9 cells/ml RBC: with 10^9 human RBC/ml
Experimental: as §1, §3, §2

SMILES | Hemolysis at 100 μM (human RBCs) | MIC in Broth Dilution, E. coli, RBC − (E. coli) [µM] | MIC, E. coli, No RBC (E. coli) [µM] | MIC in Broth Dilution, E. coli, RBC + (E. coli) [µM] | MIC, E. coli, 10^9 cells/ml RBC (E. coli) [μM] | MIC in Broth Dilution, S. Aureus, RBC − (S. aureus) [µM] | MIC, S. aureus, No RBC (S. aureus) [µM] | MIC in Broth Dilution, S. Aureus, RBC + (S. aureus) [µM] | MIC, S. aureus, 10^9 cells/ml RBC (S. aureus) [μM]
CC(C)C[C@@H](NC(=O)CNC(=O)[C@@H](CCCNC(=N)N)NC(=O)[C@@H](CCCNC(=N)N)NC(=O)[C@@H](C)NC(=O)[C@@H](Cc1c[nH]c2ccccc12)NC(=O)[C@@H](CCCNC(=N)N)NC(=O)[C@H](N)CCCNC(=N)N)C(=O)N[C@H](C)C(=O)N[C@H](Cc1ccccc1)C(=O)N[C@H](C)C(=O)N[C@H](Cc1ccccc1)C(=O)N[C@H](CCCNC(=N)N)C(=O)N[C@H](CCCNC(=N)N)C(N)=O [D-CONGA-G7, rrwarrglafafrr (All D)] (H-[dR][dR][dW][dA][dR][dR]G[dL][dA][dF][dA][dF][dR][dR]-NH2) | 0.07 | 1.3 (≈ 2.36 µg/mL) | 1.3 (≈ 2.36 µg/mL) | 1.4 | 1.4 | 6.4 (≈ 11.6 µg/mL) | 6.4 (≈ 11.6 µg/mL) | 6.9 | 6.9
CC(C)C[C@H](NC(=O)[C@H](CCCNC(=N)N)NC(=O)[C@H](CCCNC(=N)N)NC(=O)[C@H](C)NC(=O)[C@H](Cc1c[nH]c2ccccc12)NC(=O)[C@H](CCCNC(=N)N)NC(=O)[C@H](N)CCCNC(=N)N)C(=O)N[C@@H](C)C(=O)N[C@@H](Cc1ccccc1)C(=O)N[C@@H](C)C(=O)N[C@@H](Cc1ccccc1)C(=O)N[C@@H](CCCNC(=N)N)C(=O)N[C@H](CCCNC(=N)N)C(N)=O [L-CONGA-D(R1, R13)] (H-[dR]RWARRLAFAFR[dR]-NH2) | 0.01 | 20 (≈ 35.2 µg/mL) | 20 (≈ 35.2 µg/mL) | 26.2 | 26.2 | >30 | 30 (≈ 52.8 µg/mL) | >30 | 30
CC(C)C[C@@H](NC(=O)[C@@H](CCCNC(=N)N)NC(=O)[C@@H](CCCNC(=N)N)NC(=O)[C@@H](C)NC(=O)[C@@H](Cc1c[nH]c2ccccc12)NC(=O)[C@@H](CCCNC(=N)N)NC(=O)[C@H](N)CCCNC(=N)N)C(=O)N[C@H](C)C(=O)N[C@H](Cc1ccccc1)C(=O)N[C@H](Cc1ccccc1)C(=O)N[C@H](CCCNC(=N)N)C(=O)N[C@H](CCCNC(=N)N)C(N)=O [D-CONGA-ΔA10, rrwarrlaffrr (All D)] (H-[dR][dR][dW][dA][dR][dR][dL][dA][dF][dF][dR][dR]-NH2) | 0.02 | 0.7 (≈ 1.18 µg/mL) | 0.7 (≈ 1.18 µg/mL) | 1.3 | 1.3 | 23.5 (≈ 39.7 µg/mL) | 24 (≈ 40.6 µg/mL) | 19 | 19
CC(C)C[C@@H](NC(=O)[C@@H](CCCNC(=N)N)NC(=O)[C@H](CCCNC(=N)N)NC(=O)[C@@H](C)NC(=O)[C@@H](Cc1c[nH]c2ccccc12)NC(=O)[C@@H](CCCNC(=N)N)NC(=O)[C@H](N)CCCNC(=N)N)C(=O)N[C@H](C)C(=O)N[C@H](Cc1ccccc1)C(=O)N[C@@H](C)C(=O)N[C@H](Cc1ccccc1)C(=O)N[C@H](CCCNC(=N)N)C(=O)N[C@H](CCCNC(=N)N)C(N)=O [D-CONGA-L(R5, A10), rrwaRrlafAfrr] (H-[dR][dR][dW][dA]R[dR][dL][dA][dF]A[dF][dR][dR]-NH2) | 0.04 | 1.4 (≈ 2.47 µg/mL) | 1.4 (≈ 2.47 µg/mL) | 1.4 | 1.4 | >30 | 30 (≈ 52.8 µg/mL) | >30 | 30
CC(C)C[C@@H](NC(=O)[C@@H](CCCCNC(=N)N)NC(=O)[C@@H](CCCCNC(=N)N)NC(=O)[C@@H](C)NC(=O)[C@@H](Cc1c[nH]c2ccccc12)NC(=O)[C@@H](CCCNC(=N)N)NC(=O)[C@H](N)CCCNC(=N)N)C(=O)N[C@H](C)C(=O)N[C@H](Cc1ccccc1)C(=O)N[C@H](C)C(=O)N[C@H](Cc1ccccc1)C(=O)N[C@H](CCCNC(=N)N)C(=O)N[C@H](CCCNC(=N)N)C(N)=O [D-CONGA-HomoR, rrwa (homo r, homo r)lafafrr] (H-[dR][dR][dW][dA][d(hArg)][d(hArg)][dL][dA][dF][dA][dF][dR][dR]-NH2) | 0.06 | 1.3 (≈ 2.33 µg/mL) | 1.3 (≈ 2.33 µg/mL) | 2.2 | 2.2 | 1.7 (≈ 3.04 µg/mL) | 1.7 (≈ 3.04 µg/mL) | 2.5 | 2.5
CC(C)C[C@@H](NC(=O)[C@@H](CCCNC(=N)N)NC(=O)[C@@H](CCCNC(=N)N)NC(=O)[C@@H](Cc1c[nH]c2ccccc12)NC(=O)[C@@H](CCCNC(=N)N)NC(=O)[C@H](N)CCCNC(=N)N)C(=O)N[C@H](C)C(=O)N[C@H](Cc1ccccc1)C(=O)N[C@H](C)C(=O)N[C@H](Cc1ccccc1)C(=O)N[C@H](CCCNC(=N)N)C(=O)N[C@H](CCCNC(=N)N)C(N)=O [D-CONGA-ΔA4, rrwrrlafafrr (All D)] (H-[dR][dR][dW][dR][dR][dL][dA][dF][dA][dF][dR][dR]-NH2) | 0.02 | 1.6 (≈ 2.7 µg/mL) | 1.6 (≈ 2.7 µg/mL) | 2.8 | 2.8 | 3.2 (≈ 5.41 µg/mL) | 3.2 (≈ 5.41 µg/mL) | 2.3 | 2.3
CC(C)C[C@@H](NC(=O)[C@@H](CCCNC(=N)N)NC(=O)[C@H](N)CCCNC(=N)N)C(=O)N[C@H](C)C(=O)N[C@H](Cc1ccccc1)C(=O)N[C@H](C)C(=O)N[C@H](Cc1ccccc1)C(=O)N[C@H](Cc1c[nH]c2ccccc12)C(=O)N[C@H](C)C(=O)N[C@H](CCCNC(=N)N)C(=O)N[C@H](CCCNC(=N)N)C(=O)N[C@H](CCCNC(=N)N)C(=O)N[C@H](CCCNC(=N)N)C(N)=O [D-CONGA-FLIP, rrlafafwarrrr (All D)] (H-[dR][dR][dL][dA][dF][dA][dF][dW][dA][dR][dR][dR][dR]-NH2) | 0.05 | 1 (≈ 1.76 µg/mL) | 1 (≈ 1.76 µg/mL) | 1.5 | 1.5 | 1.7 (≈ 2.99 µg/mL) | 1.7 (≈ 2.99 µg/mL) | 3.7 | 3.7
